“And” between values parts separate entries of the source, which are not always exact repeats. Equal entries are not always repeated. One block for each compound: values may come before it.
Tests used:
[1] = biological target: T1, human adenosine A2B receptor (Homo sapiens, UniProt P29275); test: Competitive radioligand binding with [3H]PSB-603, membranes of CHO or HEK cells; conditions: mean ± SEM of three independent assays
T1 construct: host or cells: CHO or HEK cells
T1 sequence (P29275 1-332): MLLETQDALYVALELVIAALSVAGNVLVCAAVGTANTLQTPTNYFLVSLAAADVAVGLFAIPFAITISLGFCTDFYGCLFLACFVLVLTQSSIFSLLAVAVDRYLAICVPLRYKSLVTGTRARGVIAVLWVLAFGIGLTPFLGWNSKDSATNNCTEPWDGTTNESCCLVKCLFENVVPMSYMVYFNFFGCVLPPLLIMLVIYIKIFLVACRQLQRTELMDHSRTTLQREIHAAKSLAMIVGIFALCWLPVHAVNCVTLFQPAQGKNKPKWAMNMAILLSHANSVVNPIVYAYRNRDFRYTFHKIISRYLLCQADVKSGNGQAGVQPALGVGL
Method: (§1) The binding affinities of 2 and 9 at the four human adenosine receptor subtypes A2B, A2A, A1, and A3, presented in Table 1, were determined in competitive binding assays using appropriate radioligands and membrane preparations of Chinese hamster ovary (CHO) cells or human embryonic kidney (HEK) cells, respectively, recombinantly expressing the corresponding human receptor subtype.
(§2) Membrane preparations of recombinant CHO or HEK (human embryonic kidney) cells expressing the respective human adenosine receptor subtype were obtained according to Borrman et al. or purchased from Perkin Elmer, Germany. Radioligand binding assays using human A1, A2A, A2B and A3 receptors were performed according to Alnouri et al..
[^3H]8-(4-[4-(4-chlorophenyl)piperazine-1-sulfonyl]phenyl)-1-propyl-2,3,6,7-tetrahydro-1H-purine-2,6-dione ([^3H]PSB-603, molar activity: 73Ci/mmol, 0.3 nM [26]) for the A2B receptor, and
(§3) [^3H](R)-8-ethyl-4-methyl-2-(phenyl)1,4,7,8-tetrahydro-5H-imidazo[2,1-i]purin-5-one ([^3H]PSB-11, molar activity: 53 Ci/mmol, 1 nM [30]) for the A3 receptor. Three separate experiments were performed to determine the Ki values. All data were analyzed with GraphPad Prism, Version 4.1 (GraphPad Inc., La Jolla, CA,USA).

[2] = biological target: T2, human adenosine A2A receptor (Homo sapiens, UniProt P29274); test: Competitive radioligand binding with [3H]MSX-2, membranes of CHO or HEK cells
T2 construct: host or cells: CHO or HEK cells
T2 sequence (P29274 whole entry): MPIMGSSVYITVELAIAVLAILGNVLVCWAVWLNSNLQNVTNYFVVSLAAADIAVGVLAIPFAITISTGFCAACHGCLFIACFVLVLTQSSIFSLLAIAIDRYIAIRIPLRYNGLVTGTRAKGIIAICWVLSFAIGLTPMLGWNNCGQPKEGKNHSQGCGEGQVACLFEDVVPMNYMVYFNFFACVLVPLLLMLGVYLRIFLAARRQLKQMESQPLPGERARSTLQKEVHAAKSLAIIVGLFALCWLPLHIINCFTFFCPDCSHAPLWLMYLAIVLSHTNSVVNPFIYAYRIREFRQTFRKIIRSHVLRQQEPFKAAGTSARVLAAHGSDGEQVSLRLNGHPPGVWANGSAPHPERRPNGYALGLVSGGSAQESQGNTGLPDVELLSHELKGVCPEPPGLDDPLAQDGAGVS
Method: as §1, §2
[^3H]3-(3-hydroxypropyl)-7-methyl-8-(m-methoxystyryl)-1-propargylxanthine, ([^3H]MSX-2, molar activity: 84 Ci/mmol, 1 nM [29]) for the A2A receptor,
as §3

[3] = biological target: T3, human adenosine A1 receptor (Homo sapiens, UniProt P30542); test: Competitive radioligand binding with [3H]CCPA, membranes of CHO or HEK cells
T3 construct: host or cells: CHO or HEK cells
T3 sequence (P30542 1-326): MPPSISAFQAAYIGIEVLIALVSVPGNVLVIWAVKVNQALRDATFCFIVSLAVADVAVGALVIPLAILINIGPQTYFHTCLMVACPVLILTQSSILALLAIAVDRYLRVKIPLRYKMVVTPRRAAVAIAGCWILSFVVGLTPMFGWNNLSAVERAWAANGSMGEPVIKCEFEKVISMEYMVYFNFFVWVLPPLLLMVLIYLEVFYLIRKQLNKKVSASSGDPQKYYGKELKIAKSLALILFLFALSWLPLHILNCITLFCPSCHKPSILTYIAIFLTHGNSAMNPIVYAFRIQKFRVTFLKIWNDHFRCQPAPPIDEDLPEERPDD
Method: as §1, §2
[^3H]2-Chloro-N^6cyclopentyladenosine ([^3H]CCPA, molar activity: 58 Ci/mmol, 1 nM [28]) for the A1 receptor,
as §3

[4] = biological target: T4, human adenosine A3 receptor (Homo sapiens, UniProt P0DMS8); test: Competitive radioligand binding with [3H]PSB-11, membranes of CHO or HEK cells
T4 construct: host or cells: CHO or HEK cells
T4 sequence (P0DMS8 1-318): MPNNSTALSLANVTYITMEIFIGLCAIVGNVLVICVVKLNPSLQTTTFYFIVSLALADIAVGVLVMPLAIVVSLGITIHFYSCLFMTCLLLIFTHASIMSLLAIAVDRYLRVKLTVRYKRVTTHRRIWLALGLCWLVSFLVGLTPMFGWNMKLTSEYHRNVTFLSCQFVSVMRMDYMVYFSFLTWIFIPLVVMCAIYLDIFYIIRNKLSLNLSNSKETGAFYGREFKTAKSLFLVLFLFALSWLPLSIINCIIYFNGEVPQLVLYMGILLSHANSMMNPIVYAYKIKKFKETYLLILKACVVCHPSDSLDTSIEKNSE
Method: as §1, §2, §3

[5] = parameters: method as in PMID 30104122; conditions: mice, 30 min p.i.; cited from earlier work
[6] = Shake-flask lipophilicity, n-octanol/phosphate-buffered saline; type: physicochemical; conditions: n-octanol/PBS, n = 4
Description: The partition coefficient of [^18F]9 was experimentally determined for the n-octanol/PBS system by the shake-flask method as described previously.

[7] = In vivo metabolism in mice, plasma and urine analysed by RP-HPLC and MLC; parameters: species or system CD-1 mice; conditions: 30 min p.i.
Method: The metabolism of [^18F]9 in vivo was investigated in CD-1 mice by taking blood and urine samples at 30 min post i.v. injection of the radiotracer (n = 2). Analysis of the respective samples was performed by micellar (MLC) and reversed-phase chromatography (RP-HPLC) as two complementary HPLC methods. MLC is also a reversed-phase HPLC mode, but it uses a mobile phase consisting of an aqueous solution with a surfactant above its critical micellar concentration. The formed micelles are able to dissolve the proteins and other components of a biological sample and therefore enable a direct injection of the plasma probe into the HPLC system without eliminating the tissue matrix. In contrast, for RP-HPLC analysis, aliquots of the plasma samples were treated with a mixture of ACN/water to precipitate the proteins, resulting in recoveries of activity of about 93%.
For metabolism studies (n = 2), [^18F]9 (30–40 MBq) was administered as a bolus in awake female CD-1 mice (10–12 weeks, 25–32 g) via the tail vein. At 30 min p.i., the animals were slightly anesthetized with isoflurane, and blood was sampled from retro-orbital plexus. Blood plasma was obtained as a supernatant after centrifugation of the whole blood samples (14,000 rpm, 1 min; Centrifuge 5418, Eppendorf Vertrieb Deutschland GmbH, Wesseling-Berzdorf, Germany). After cervical luxation of the animals, urine samples were obtained. All samples were weighed and the respective activity measured in a dose calibrator (ISOMED 2010; MED Nuklear-Medizintechnik Dresden GmbH, Dresden, Germany).
MLC: For preparation of the MLC samples, mouse plasma (20–50 µL) was dissolved in 200 µL of 200 mM aq. sodium dodecyl sulfate (SDS) and injected into the MLC system. The MLC system was built up as described previously. Separations were performed using a Reprosil-Pur C18-AQ column (250 × 4.6 mm + 10 mm pre-column, particle size: 10 µm) and an eluent mixture of EtOH/100 mM aq. SDS/25 mM (NH4)2HPO4 in gradient mode (0–10 min at 100% 100 mM aq. SDS, 10–15 min up to 10% EtOH, 15–20 min at 10% EtOH, 20–21 min up to 100% 100 mM aq. SDS; 21–30 min at 100% 100 mM aq. SDS) at a flow rate of 1.0 mL/min. The same HPLC apparatus was used as described in the radiochemistry part in generals.
RP-HPLC: Protein precipitation was performed by addition of an ice-cold mixture of ACN/water (9/1; v/v) in a ratio of 4:1 (v/v) of organic solvent to plasma. The sample workup was performed according to a procedure previously described in detail. The urine samples were diluted with water and directly injected. To analyze the samples, the same HPLC apparatus and method was used as described in the radiochemistry section.

[8] = Dynamic small-animal PET biodistribution, baseline and blocking with compound 2; type: in vivo, female CD-1 mice; conditions: for SUV 60 min p.i. lung / TAC peak SUV lung: single animals, n = 2
Description: We then performed a pilot study to estimate very basic characteristics of the pharmacokinetics of the new radiotracer via dynamic small-animal PET imaging with [^18F]9 in female CD-1 mice. The time–activity curves (TACs) obtained in different tissues under both baseline (administration of vehicle, n = 2) and blocking (administration of compound 2, n = 2) conditions are presented in Figure 3; the whole-body maximum intensity projections are shown in Figure S3 in the Supplementary Material. The overall biodistribution of [^18F]9 under baseline conditions corresponded to the known quite ubiquitous but physiologically not very dense expression of A2B receptors. Although higher levels of the A2B receptor protein have been reported in the literature for certain cell types, such as alveolar epithelial cells and endothelial cells, the resemblance of the TACs in peripheral organs such as lungs under baseline and blocking conditions indicated no target-specific retention of [^18F]9 (TAC peak SUV lung: 3.09 and 2.88 vs. 2.30 and 1.57, resp.; SUV60 min p.i., lung: 0.44 and 0.25 vs. 0.32 and 0.20, resp.). […] This discrepancy between our and Petroni’s results might indicate differences in the biological effects exerted by agonistic (BAY60-6583) or antagonistic (compound 2) A2B receptor ligands, as well as model-related differences such as the expression of A2B receptors. The latter option could also explain the about 10-fold lower uptake of [^18F]9 in the brown adipose tissue (BAT) of female CD-1 mice in comparison to the uptake of [^11C]-4 in the BAT of male Wistar rats.
The biodistribution of the radiotracer was assessed in female CD-1 mice (30.6 ± 0.4 g bodyweight) using a dedicated small-animal PET-MRI scanner (nanoScan, Mediso, Hungary) over 60 min followed by a subsequent T1-weighted MR. The anaesthetized (2% isoflurane, carrier gas mixture of 40% air and 60% O2) female CD-1 mice were kept on a heated animal bed to maintain body temperature during imaging. Vehicle (10% DMSO in isotonic 0.9% NaCl solution) or compound 2 at 1 mg/kg bodyweight were co-injected with the tracer ([^18F]9: injected dose of 6.9 ± 0.1 MBq, equivalent to 10.4 ± 0.9 fmol/g bodyweight) intravenously 20 seconds after starting the dynamic PET acquisition, performed in normal mode and with a coincidence mode 1–5. For subsequent dynamic reconstructions (Nucline v2.01, Mediso, Hungary) by Ordered Subset Expectation Maximization (OSEM3D) with an attenuation correction with four iterations, six subsets, and a voxel size of 0.4 mm^3, list mode data were sorted into sinograms (12 × 10 s, 6 × 30 s, 5 × 60 s, and 10 × 300 s). PMOD software (v4.005, PMOD Technologies LLC, Zurich, Switzerland) was used for analysis of reconstructed studies and the results are expressed as standardized uptake value (SUV) given in mean ± SD.

[9] = blocking (compound 2, 1 mg/kg co-injected)

Ki [1]: 2.51 ± 0.58 nM
Ki ([2]; [3H]MSX-2, mean ± SEM of three independent assays): 107 ± 15 nM
Selectivity Ratio Ki(Ax)/Ki(A2B): A2A/A2B ([2]; ratio of Ki values): 43
Ki ([3]; [3H]CCPA, mean ± SEM of three independent assays): 149 ± 26 nM
Selectivity Ratio Ki(Ax)/Ki(A2B): A1/A2B ([3]; ratio of Ki values): 59
Ki ([4]; [3H]PSB-11, mean ± SEM of three independent assays): 286 ± 10 nM
Selectivity Ratio Ki(Ax)/Ki(A2B): A3/A2B ([4]; ratio of Ki values): 114
Compound: O=c1[nH]c(=O)c2cc(-c3ccnc(F)c3)c(-c3ccco3)nc2[nH]1 [Compound 9, 6-(2-Fluoropyridin-4-yl)-7-(furan-2-yl)pyrido[2,3-d]pyrimidine-2,4(1H,3H)-dione]

Compound: O=C(Nc1cnc(-c2ccnc([18F])c2)c(-c2ccccc2F)n1)C1CC1 [[^18F]1]
intact radiotracer in plasma [5]: 35%

logD [6]: 1.4 ± 0.1
activity concentration in urine (SUV) ([7]; CD-1 mice): 75
intact radiotracer, fraction of total activity in plasma ([7]; CD-1 mice, i.v., n = 2): about 60%
intact tracer in plasma, RP-HPLC, calculated considering the 93% recovery ([7]; mouse plasma): 60%
intact radiotracer in plasma, MLC ([7]; mouse plasma, exemplary MLC chromatogram): 57%
intact radiotracer in plasma, RP-HPLC ([7]; mouse plasma, exemplary RP-HPLC chromatogram): 64%
SUV 60 min p.i. lung ([8]; baseline (vehicle)): 0.44 and 0.25
TAC peak SUV lung ([8]; baseline (vehicle)): 3.09 and 2.88
SUV brain after 60 min p.i. ([8]; baseline, mean (single values)): 0.11 (0.14 and 0.08)
initial TAC peak SUV brain ([8]; baseline, mean (single values)): 0.19 (0.20 and 0.17)
SUV 60 min p.i. lung [8, 9]: 0.32 and 0.20
TAC peak SUV lung [8, 9]: 2.30 and 1.57
TAC peak SUV brain ([8]; co-administration of compound 2, mean (single values)): 0.12 (0.11 and 0.13)
fold lower uptake in brown adipose tissue (BAT) versus [11C]-4 in BAT of male Wistar rats ([8]; female CD-1 mice, comparison with ref 13): about 10 fold
Compound: O=c1[nH]c(=O)c2cc(-c3ccnc([18F])c3)c(-c3ccco3)nc2[nH]1 [[^18F]9]

Reference: article PMC7246765, “Development of a Radiofluorinated Adenosine A2B Receptor Antagonist as Potential Ligand for PET Imaging” (International Journal of Molecular Sciences, 2020)
